Measurements as given in ChEMBL document CHEMBL4346657, “Anticancer activity, dual prooxidant/antioxidant effect and apoptosis induction profile of new bichalcophene-5-carboxamidines” (Eur J Med Chem, 2019).
Active and inactive are the calls of the source. The rule behind the calls is not given here.

Tests used:
MCF7 = assay: Antiproliferative activity against human MCF7 cells assessed as growth inhibition after 48 hrs by sulforhodamine B assay; assay type: functional; details: MCF7, 48 h
SN12C = assay: Antiproliferative activity against human SN12C cells assessed as growth inhibition after 48 hrs by sulforhodamine B assay; assay type: functional
NCI-H226 = assay: Antiproliferative activity against human NCI-H226 cells assessed as growth inhibition after 48 hrs by sulforhodamine B assay; assay type: functional; details: NCI-H226, 48 h
SK-OV-3 = assay: Antiproliferative activity against human SKOV3 cells assessed as growth inhibition after 48 hrs by sulforhodamine B assay; assay type: functional; details: SK-OV-3, 48 h
ACHN = assay: Antiproliferative activity against human ACHN cells assessed as growth inhibition after 48 hrs by sulforhodamine B assay; assay type: functional
[1] = tested on: Panel NCI-60 (60 carcinoma cell lines); assay: Antiproliferative activity against human NCI60 cells assessed as growth inhibition after 48 hrs by sulforhodamine B assay; assay type: functional
HCT-116 [2] = assay: Antiproliferative activity against human HCT116 cells assessed as growth inhibition after 48 hrs by sulforhodamine B assay; assay type: functional; details: HCT-116, 48 h
MDA-MB-231 = assay: Antiproliferative activity against human MDA-MB-231/ATCC cells assessed as growth inhibition after 48 hrs by sulforhodamine B assay; assay type: functional; details: MDA-MB-231, 48 h
SNB-19 = assay: Antiproliferative activity against human SNB19 cells assessed as growth inhibition after 48 hrs by sulforhodamine B assay; assay type: functional; details: SNB-19, 48 h
COLO 205 = assay: Antiproliferative activity against human COLO205 cells assessed as growth inhibition after 48 hrs by sulforhodamine B assay; assay type: functional; details: COLO 205, 48 h
NCI-H522 = assay: Antiproliferative activity against human NCI-H522 cells assessed as growth inhibition after 48 hrs by sulforhodamine B assay; assay type: functional; details: NCI-H522, 48 h
SK-MEL-5 = assay: Antiproliferative activity against human SK-MEL-5 cells assessed as growth inhibition after 48 hrs by sulforhodamine B assay; assay type: functional; details: SK-MEL-5, 48 h
NCI-H322M = assay: Antiproliferative activity against human NCI-H322M cells assessed as growth inhibition after 48 hrs by sulforhodamine B assay; assay type: functional
EKVX = assay: Antiproliferative activity against human EKVX cells assessed as growth inhibition after 48 hrs by sulforhodamine B assay; assay type: functional
UACC-62 = assay: Antiproliferative activity against human UACC62 cells assessed as growth inhibition after 48 hrs by sulforhodamine B assay; assay type: functional; details: UACC-62, 48 h
SK-MEL-2 = assay: Antiproliferative activity against human SK-MEL-2 cells assessed as growth inhibition after 48 hrs by sulforhodamine B assay; assay type: functional; details: SK-MEL-2, 48 h
786-0 = assay: Antiproliferative activity against human 786-0 cells assessed as growth inhibition after 48 hrs by sulforhodamine B assay; assay type: functional; details: 786-0, 48 h
[3] = Haemolytic activity in human erythrocytes assessed as induction of hemolysis at 5 mM after 30 mins relative to H202; assay type: cell-based, Erythrocyte; details: read-out: Activity
[4] = Antioxidant activity assessed as ABTS radical scavenging activity by spectrophotometric method relative to ascorbic acid; assay type: functional
SW-620 = assay: Antiproliferative activity against human SW620 cells assessed as growth inhibition after 48 hrs by sulforhodamine B assay; assay type: functional; details: SW-620, 48 h
NCI-H460 = assay: Antiproliferative activity against human NCI-H460 cells assessed as growth inhibition after 48 hrs by sulforhodamine B assay; assay type: functional; details: NCI-H460, 48 h
[5] = Antioxidant activity assessed as hydroxyl radical scavenging activity after 1 hr by salicylic acid-based Fenton reaction assay; assay type: functional
RPMI-8226 = assay: Antiproliferative activity against human RPMI8226 cells assessed as growth inhibition after 48 hrs by sulforhodamine B assay; assay type: functional; details: RPMI-8226, 48 h
[6] = Haemolytic activity in human erythrocytes assessed as induction of hemolysis at 10 mM after 30 mins relative to H202; assay type: cell-based, Erythrocyte; details: read-out: Activity
[7] = Antioxidant activity assessed as ABTS radical scavenging activity by spectrophotometric analysis relative to control; assay type: functional; parameters: concentration or dose not given beside the values; details: dose or concentration not given here
HCT-116 [8] = assay: Induction of apoptosis in human HCT116 cells assessed as increase in caspase 9 mRNA expression at 100 nM after 6 hrs hrs by SYBR green dye-based qRT-PCR analysis relative to control; assay type: functional
M14 = assay: Antiproliferative activity against human M14 cells assessed as growth inhibition after 48 hrs by sulforhodamine B assay; assay type: functional; details: M14, 48 h
[9] = tested on: Panel NCI-60 (60 carcinoma cell lines); assay: Antiproliferative activity against human NCI60 cells assessed as growth inhibition at 10 uM after 48 hrs by sulforhodamine B assay; assay type: functional; details: read-out: GI
SF-268 = assay: Antiproliferative activity against human SF268 cells assessed as growth inhibition after 48 hrs by sulforhodamine B assay; assay type: functional; details: SF-268, 48 h
HL-60(TB) = assay: Antiproliferative activity against human HL-60(TB) cells assessed as growth inhibition after 48 hrs by sulforhodamine B assay; assay type: functional; details: HL-60, 48 h
OVCAR-5 = assay: Antiproliferative activity against human OVCAR5 cells assessed as growth inhibition after 48 hrs by sulforhodamine B assay; assay type: functional; details: OVCAR-5, 48 h
HCT-116 [10] = assay: Induction of apoptosis in human HCT116 cells assessed as increase in p53 mRNA expression at 100 nM after 6 hrs hrs by SYBR green dye-based qRT-PCR analysis relative to control; assay type: functional
CCRF-CEM = assay: Antiproliferative activity against human CCRF-CEM cells assessed as growth inhibition after 48 hrs by sulforhodamine B assay; assay type: functional
HCT-116 [11] = assay: […] in CDK1 mRNA expression in human HCT116 cells at 100 nM after 6 hrs hrs by SYBR green dye-based qRT-PCR analysis relative to control; assay type: functional
DU-145 = assay: Antiproliferative activity against human DU145 cells assessed as growth inhibition after 48 hrs by sulforhodamine B assay; assay type: functional; details: DU-145, 48 h
MDA-MB-435 = assay: Antiproliferative activity against human MDA-MB-435 cells assessed as growth inhibition after 48 hrs by sulforhodamine B assay; assay type: functional; details: MDA-MB-435, 48 h
[12] = Selectivity index, ratio of IC50 for human WI38 cells to GI50 for human NCI60 cells
Malme-3M = assay: Antiproliferative activity against human MALME-3M cells assessed as growth inhibition after 48 hrs by sulforhodamine B assay; assay type: functional
[13] = Pro-oxidant activity assessed as increase in bleomycin-Fe2+ induced calf thymus DNA damage at 2 mM after 1 hr by thiobarbituric acid based absorbance analysis
SF-295 = assay: Antiproliferative activity against human SF295 cells assessed as growth inhibition after 48 hrs by sulforhodamine B assay; assay type: functional; details: SF-295, 48 h
IGROV-1 = assay: Antiproliferative activity against human IGROV1 cells assessed as growth inhibition after 48 hrs by sulforhodamine B assay; assay type: functional; details: IGROV-1, 48 h
SK-MEL-28 = assay: Antiproliferative activity against human SK-MEL-28 cells assessed as growth inhibition after 48 hrs by sulforhodamine B assay; assay type: functional; details: SK-MEL-28, 48 h

N=C(N)c1ccc(-c2ccc(-c3ccc(Cl)cc3)o2)o1
GI50 (MCF7): 1.27 µM
GI50 (SN12C): 1.9 µM
GI50 (NCI-H226): 2.19 µM
GI50 (SK-OV-3): 1.79 µM
GI50 (ACHN): 1.89 µM
GI50 [1]: 1.81 µM
LC50 [1]: 12.6 µM
TGI [1]: 3.72 µM
GI50 (HCT-116 [2]): 1.9 µM
GI50 (MDA-MB-231): 2.01 µM
GI50 (SNB-19): 1.86 µM
GI50 (COLO 205): 1.83 µM
GI50 (NCI-H522): 1.73 µM
GI50 (SK-MEL-5): 1.81 µM
GI50 (NCI-H322M): 1.67 µM
GI50 (EKVX): 1.5 µM
GI50 (UACC-62): 1.89 µM
GI50 (SK-MEL-2): 2.08 µM
GI50 (786-0): 1.85 µM
hemolysis at 0.5 h, 5000 µM [3]: 70.7%
fold change (FC) [4]: 0.2
GI50 (SW-620): 1.7 µM
GI50 (NCI-H460): 1.89 µM
Activity [5]: Active
GI50 (RPMI-8226): 2.12 µM
hemolysis at 0.5 h, 10000 µM [6]: 97.3%
inhibition [7]: 20.4%
fold change (FC) (HCT-116 [8]): 4
GI50 (M14): 1.85 µM
inhibition of growth at 10 µM [9]: -2.02%
GI50 (SF-268): 1.75 µM
GI50 (HL-60(TB)): 1.87 µM
GI50 (OVCAR-5): 1.82 µM
fold change (FC) (HCT-116 [10]): 1.09
GI50 (CCRF-CEM): 1.96 µM
fold change (FC) (HCT-116 [11]): 0.93
GI50 (DU-145): 1.75 µM
GI50 (MDA-MB-435): 1.38 µM
Selectivity Index [12]: 5.5
GI50 (Malme-3M): 1.91 µM
Activity [13]: Active
GI50 (SF-295): 1.83 µM
GI50 (IGROV-1): 1.77 µM
GI50 (SK-MEL-28): 1.83 µM

N=C(N)c1ccc(-c2ccc(-c3cncc4ccccc34)s2)s1
GI50 (MCF7): 0.28 µM
GI50 (SN12C): 1.8 µM
GI50 (NCI-H226): 1.91 µM
GI50 (SK-OV-3): 1.58 µM
GI50 (ACHN): 1.48 µM
GI50 [1]: 1.34 µM
LC50 [1]: 77.6 µM
TGI [1]: 3.23 µM
GI50 (HCT-116 [2]): 1.61 µM
GI50 (MDA-MB-231): 1.35 µM
GI50 (SNB-19): 2.17 µM
GI50 (COLO 205): 0.75 µM
GI50 (NCI-H522): 1.65 µM
GI50 (SK-MEL-5): 1.74 µM
GI50 (NCI-H322M): 1.66 µM
GI50 (EKVX): 1.33 µM
GI50 (UACC-62): 2.31 µM
GI50 (SK-MEL-2): 2 µM
GI50 (786-0): 1.59 µM
hemolysis at 0.5 h, 5000 µM [3]: 4%
fold change (FC) [4]: 0.8
GI50 (SW-620): 1.08 µM
GI50 (NCI-H460): 0.88 µM
Activity [5]: Active
GI50 (RPMI-8226): 1.78 µM
hemolysis at 0.5 h, 10000 µM [6]: 12.3%
inhibition [7]: 69.9%
fold change (FC) (HCT-116 [8]): 1.27
GI50 (M14): 1.62 µM
inhibition of growth at 10 µM [9]: -59.2%
GI50 (SF-268): 1.63 µM
GI50 (HL-60(TB)): 1.92 µM
GI50 (OVCAR-5): 1.71 µM
fold change (FC) (HCT-116 [10]): 4.67
GI50 (CCRF-CEM): 0.36 µM
fold change (FC) (HCT-116 [11]): 0.16
GI50 (DU-145): 1.55 µM
GI50 (MDA-MB-435): 2.03 µM
Selectivity Index [12]: >74.6
GI50 (Malme-3M): 1.61 µM
Activity [13]: Active
GI50 (SF-295): 1.8 µM
GI50 (IGROV-1): 1.91 µM
GI50 (SK-MEL-28): 1.64 µM

COc1ccc2cc(-c3ccc(-c4ccc(C(=N)N)s4)s3)ccc2c1
GI50 (MCF7): 1.91 µM
GI50 (SN12C): 2.12 µM
GI50 (NCI-H226): 23.6 µM
GI50 (SK-OV-3): 17.9 µM
GI50 (ACHN): 3.06 µM
GI50 [1]: 3.09 µM
LC50 [1]: 38 µM
TGI [1]: 7.94 µM
GI50 (HCT-116 [2]): 2.08 µM
GI50 (MDA-MB-231): 2.46 µM
GI50 (SNB-19): 2.13 µM
GI50 (COLO 205): 2.04 µM
GI50 (NCI-H522): 1.92 µM
GI50 (SK-MEL-5): 16.1 µM
GI50 (NCI-H322M): 2.02 µM
GI50 (EKVX): 2.14 µM
GI50 (UACC-62): 2.01 µM
GI50 (SK-MEL-2): 2.66 µM
GI50 (786-0): 2.04 µM
hemolysis at 0.5 h, 5000 µM [3]: 11.3%
fold change (FC) [4]: 0.6
GI50 (SW-620): 1.91 µM
GI50 (NCI-H460): 1.94 µM
Activity [5]: Active
GI50 (RPMI-8226): 2.16 µM
hemolysis at 0.5 h, 10000 µM [6]: 18.7%
inhibition [7]: 57.4%
fold change (FC) (HCT-116 [8]): 2.51
GI50 (M14): 4 µM
inhibition of growth at 10 µM [9]: 95.3%
GI50 (SF-268): 2.1 µM
GI50 (HL-60(TB)): 1.84 µM
GI50 (OVCAR-5): 2.11 µM
fold change (FC) (HCT-116 [10]): 1.03
GI50 (CCRF-CEM): 1.51 µM
fold change (FC) (HCT-116 [11]): 0.93
GI50 (DU-145): 1.7 µM
GI50 (MDA-MB-435): 2.01 µM
Selectivity Index [12]: 26
GI50 (Malme-3M): 3.32 µM
Activity [13]: Active
GI50 (SF-295): 5.07 µM
GI50 (IGROV-1): 2.27 µM
GI50 (SK-MEL-28): 2.5 µM
